Common to all, as to type: in vivo
Test [1] has as its system rat kidneys. Put plainly: Histology of transplanted rat kidneys (hematoxylin-eosin-safran, optical microscopy). To be noted: day 14 after transplantation; kidney stored 6 h at 4 °C in gas-saturated solution. How it is done:
(§1) In order to evaluate the renal graft preservation properties of argon or other gases, rat kidneys were removed and stored in a gas-saturated liquid solution according to the present invention.
(§2) After six hours of organ preservation at a temperature of 4° C. and at atmospheric pressure, the rat kidneys are transplanted and the survival time, renal function and reperfusion/ischemia injuries are studied by means of biochemical and histological analyses.
On day 14 after transplantation, the kidneys are removed, weighed and cut into blocks. The kidneys are then fixed with a buffered 4% formaldehyde infusion for 24 h and they are embedded in paraffin. Five-micrometer sections are obtained from the blocks and stained with hematoxylin-eosin-safran in order to examine them by optical microscopy.

Test [2] deals with rat kidneys. Nature of the test: Rat kidney transplantation after cold storage in gas-saturated Celsior solution: renal function (creatinine clearance, urinary albumin). To be noted: for overall effect on the preservation of a renal graft: compared with the other experimental groups; for level of albumin in the urine (urinary albumin): kidney stored 6 h at 4 °C, atmospheric pressure, in gas-saturated Celsior, days 7 and 14 after transplantation. How it is done:
In accordance with the present invention, argon gas was dissolved in a liquid organ preservation solution available on the market, i.e. the CELSIOR solution, the composition of which is given in table 1, in order to obtain a liquid formulation in accordance with the present invention.
For the purposes of comparison, other gases, i.e. xenon, air and nitrogen, were dissolved in the same type of liquid solution.
as §1, §2
On days 0 (pretransplantation), 7 and 14 (after transplantation), biochemical analyses, i.e. creatinine clearance and urinary albumin, are carried out in the manner described by M. Yin et al., in “Carolina rinse solution minimizes kidney injury and improves graft function and survival after prolonged cold ischemia.” Transplantation 2002; 73:1410-1420).
Creatinine clearance is a parameter that is used to evaluate renal function. A high clearance corresponds to good renal function, while the presence of albumin in the urine (urinary albumin) indicates renal damage since, normally, there is no albumin in the urine when the kidney is normal.

In test [3] the test system is rat kidneys. Put plainly: Immunohistochemistry of transplanted rat kidneys (anti-active caspase-3, anti-CD10). The note with it: day 14 after transplantation; for active caspase-3 expression (immunohistochemistry): marker for apoptosis. How it is done: In order to evaluate the renal graft preservation properties of argon or other gases, rat kidneys were removed and stored in a gas-saturated liquid solution according to the present invention. After six hours of organ preservation at a temperature of 4° C. and at atmospheric pressure, the rat kidneys are transplanted and the survival time, renal function and reperfusion/ischemia injuries are studied by means of biochemical and histological analyses. Immunodetections were carried out on serial cryostat sections 5 μm thick, using certain specific antibodies, i.e. anti-active caspase-3 and anti-CD10. The kidneys of a normal rat are used as control. After having been rinsed, the sections are incubated for 30 minutes with biotinylated secondary antibodies and they are then visualized using avidin-biotin peroxidase.

“Also recorded” adds a separate entry of the source.

With `[Ar]` [argon], the “histological observations of transverse kidney sections” value in the test with rat kidneys [1] was “the architectural integrity of the kidney is preserved without any obvious glomerular modification; also recorded: intact normal morphology as in the control group, with no modification nor any necrosis”. In the test on rat kidneys [2], the “overall effect on the preservation of a renal graft” value is “very positive and advantageous effects”; the “level of albumin in the urine (urinary albumin)” value was “much lower than the levels of albumin (urinary albumin) obtained with the other transplanted kidneys”. Moreover, the “active caspase-3 expression (immunohistochemistry)” value (“active caspase-3 expression” below) in the test on rat kidneys [3] was “discrete and focal losses”. In the test with rat kidneys [3] (weak CD10 expression corresponds to a damaged kidney), the “CD10 expression (immunohistochemistry)” value is “discrete and focal losses of CD 10 expression”.
For `N#N` [nitrogen, reference compound], in the test on rat kidneys [3], the “active caspase-3 expression” value is reported as “significant expression of active caspase-3”.
Regarding `[Xe]` [xenon, reference compound], in the test with rat kidneys [2], the “overall effect on the preservation of a renal graft” value is listed as “some good effects” and the “level of albumin in the urine (urinary albumin)” value is recorded as “an effect greater than that which was obtained with the controls, but which is less than that obtained with argon”. For the same molecule, the “active caspase-3 expression” value in the test with rat kidneys [3] is on record as “the active caspase-3 expression has been lost because of the serious acute tubular necrosis”.

These data come from US20120301866A1, “LIQUID FORMULATION HAVING DISSOLVED GASES USEFUL FOR PRESERVING BIOLOGICAL MATERIAL” (L'Air Liquide, Société Anonyme pour I'Etude et …, priority 2010, published 2012).
